# Measurements reported in patent US20240226285A9, “IMMUNOSTIMULATORY COMPOSITIONS” (Bayer Animal Health GmbH, priority 2020, published 2024).
# Assays:
# NF-κB pathway = test: NF-κB dependent pathway readout (SEAP, pNPP assay) in J774-Dual reporter cell line; type: cell-based, murine; settings: for activation of the NF-κB pathway (SEAP levels) compared to untreated J774-DUAL / activation of the NF-κB pathway (increase of SEAP levels in supernatant, normalized to protein content): J774-DUAL cells, 48 h; for activation of the NF-κB pathway (increase of SEAP levels in supernatant, normalized to protein content): FIG. 1, class C ODN, oligonucleotide-liposome complexes, 1.85 μg/mL oligonucleotide
# Experimental: (§1) J774-DUAL™ cells (InvivoGen, murine NF-kB & IRF Reporter macrophage-like cells) were grown in Dulbecco's minimum essential medium (DMEM) with high D-glucose content, 1 mM sodium pyruvate and 4 mM stable glutamine. DMEM was supplemented with 10% FBS, 50 μg/mL streptomycin, 50 U/mL penicillin G and 100 μg/mL Normocin™. Every other week, the culture medium was additionally supplemented with 200 μg/mL Zeocin™ and 20 μg/mL Blasticidin.
# (§2) For experimental series, serum free DMEM without phenol red was prepared containing 1 mM sodium pyruvate, 4 mM L-glutamine, 50 μg/mL streptomycin, 50 U/mL penicillin G, 100 μg/mL Normocin™, 200 μg/mL Zeocin™ and 20 μg/mL Blasticidin. J774-DUAL™ cell line was split once per week with a splitting ratio of 1:4.
# (§3) J774-DUAL™ cells were cultivated in a Heracell™ 150 incubator (Thermo Scientific) at 37° C. with 5% C02 and 95% humidified air. For seeding, cells were counted using a Neubauer bright line hemocytometer (Marienfeld) with a volume 0.1 mm^3. Cell lines were regularly checked for absence of mycoplasmic contamination.
# J774-Dual™ is a reporter cell line provided by Invivogen, which enables the simultaneous investigation of signal transduction resulting in the activation of the NF-κB and/or the IRF pathway.
# J774-Dual™ cells express secreted embryonic alkaline phosphatase (SEAP) under the control of the NF-κB pathway. SEAP is secreted into the cell culture supernatant. Thus, a semi-quantitative analysis of NF-κB activation is possible (Invivogen product information (“J774-Dual Cells|NF-κB & IRF/IFN Reporter Macrophage” n.d., 774)). p-Nitrophenyl phosphate (pNPP) is a widely utilized chromogenic chemical for rapid determination of alkaline phosphatase activity. In the presence of alkaline phosphatase the substance is hydrolyzed into phosphate and the yellow para-Nitrophenol which can be measured spectrophotometrically (Bessey, Otto A., O. H. Lowky, and Mary Jane Brock. “A method for the rapid determination of alkaline phosphatase with five cubic millimeters of serum.” Journal of Biological Chemistry 164 (1946): 321-329.).
# Cells were seeded with a density of 1×10^5 cells per well into 96-well microplates and given 24 h for adherence. The culture medium was removed and the cells were incubated with either naked CpG nucleic acids, liposomes or liposome-nucleic acid complexes in serum-free medium at 37° C. with 5% CO2 and 95% humidified air (Heracell™ 150, Thermo Scientific). Liposome with a LC20>40 μM were included in the experimental series. After 48 h of incubation 100 μL supernatant of each sample were transferred into 96-well microplates (SpectraPlate™-96 TC, Perkin Elmer) and analyzed spectrophotometrically using a p-Nitrophenyl phosphate assay.
# To this end, 100 μL pNPP working reagent consisting of 20 mM pNPP in 50 mM NaHCO3 buffer (pH 9.6) were added to each well containing samples, controls or calibration standards. After the incubation of the mixture at 37° C. for 1 h, absorbance was determined using Victor3™ V multimode plate reader (Perkin Elmer) equipped with a 405 nm absorbance filter. Lipopolysaccharide from Salmonella anterica serotype Minnesota was applied as calibration standard to determine the linear range of the assay and as positive control. All experiments were conducted in triplicate.
# Raw data was normalized to 10 μg/mL protein content and the average value of the untreated control was subtracted.
# IRF pathway = test: Interferon regulatory factor (IRF) pathway readout (Lucia luciferase, QUANTI-Luc) in J774-Dual reporter cell line; type: cell-based, murine; settings: ODN complexed with liposomes comprising DOTAP+DOPE, DOTMA+DOPE or DDA+DOPE; 40 μM liposomal lipids, 1.85 μg/mL ODN; J774-DUAL cells, 48 h
# Experimental: as §1, §2
# as §3, with “contamination. […]” for “contamination.”
# J774-Dual™ cells also express the Lucia luciferase gene under the control of the IRF pathway. […] By using QUANTI-Luc™ reagent, a semi-quantitative analysis of IRF activation is thus possible (Invivogen product information (“J774-Dual Cells|NF-κB & IRF/IFN Reporter Macrophage” n.d., 774).
# Cells were seeded with a density of 1×10^5 cells per well into 96-well microplates and given 24 h for adherence. […] After 48 h of incubations, 50 μL supernatant of each sample were transferred into 96-well microplates (OptiPlate™-96 HS, Perkin Elmer) and analyzed using QUANTI-Luc™ luminescence assay according to the manufacturer's instructions.
# QUANTI-Luc™ reagent was dissolved in 25 mL endotoxin-free water, and 50 μL were added to each well containing samples, controls or calibration standards. Luminescence was immediately determined using EnSpire® multimode plate reader (Perkin Elmer) and measured as relative light units (RLU). […]
substance,measurement,setting,value
"ODN 1668: class B immunostimulatory CpG oligonucleotide, SEQ ID NO. 3 (DNA TCCATGACGTTCCTGATGCT; listed as DNA, chemistry not given here)",activation of the NF-κB pathway (SEAP levels) compared to untreated J774-DUAL,"NF-κB pathway; FIG. 3, ODN complexed with liposomes, 40 μM liposomal lipids, 1.85 μg/mL ODN",increased NF-κB pathway activation
same,immunostimulatory potency (NF-κB pathway) of complexes compared to the uncomplexed ODN,"NF-κB pathway; FIG. 3, all liposome complexes except those with liposomes comprising DOTMA+DOPE, 40 μM lipids, 1.85 μg/mL ODN",not significantly improved
same,activation of the NF-κB pathway (SEAP levels) compared to untreated J774-DUAL,"NF-κB pathway; FIG. 3, uncomplexed (naked) ODN 1.85 μg/mL",increased NF-κB pathway activation
same,"activation of the IRF pathway (increase of luciferase levels in supernatant, normalized to protein content)",IRF pathway,potent IRF pathway activation was observed
"ODN 2395: class C immunostimulatory CpG oligonucleotide, SEQ ID NO. 1 (TCGTCGTTTTCGGCGCGCGCCG; listed as DNA, chemistry not given here)","activation of the NF-κB pathway (increase of SEAP levels in supernatant, normalized to protein content)",NF-κB pathway; 40 μM liposomal lipids,potent NF-κB pathway activation was not observed
same,"activation of the IRF pathway (increase of luciferase levels in supernatant, normalized to protein content)",IRF pathway,potent IRF pathway activation was observed
"ODN M362: class C immunostimulatory CpG oligonucleotide, SEQ ID NO. 2 (TCGTCGTCGTTCGAACGACGTTGAT; listed as DNA, chemistry not given here)","activation of the NF-κB pathway (increase of SEAP levels in supernatant, normalized to protein content)",NF-κB pathway; 40 μM liposomal lipids,potent NF-κB pathway activation was not observed
same,"activation of the IRF pathway (increase of luciferase levels in supernatant, normalized to protein content)",IRF pathway,potent IRF pathway activation was observed
